From patent US11779575B2, “Use of Wnt inhibitor Wnt-C59 in preparation of drug for treating SCN5A mutation-induced dilated cardiomyopathy” (ZHONGSHAN HOSPITAL, FUDAN UNIVERSITY, priority 2020, dated 2023)

Experiments:
[1] = system: SCN5A heterozygous mutant mice (KI) with galactose aging and adriamycin-induced DCM; assay: Evaluation on mouse cardiac function by echocardiography in aging and adriamycin-induced DCM model; format: in vivo; settings: KI+Wnt-C59 group vs KI group, intragastric 1 mg/kg.d for 2 weeks
Experimental: (§1) SPF-grade male C57BL/6 mice (purchased from Shanghai Jiesijie Experimental Animal Co., Ltd.) and SCN5A heterozygous mutant mice (aging 8 to 10 weeks and weighing 20 g to 25 g) were selected and intraperitoneally injected with d-galactose (500 mg/kg. d, sigma G5388) continuously for 8 weeks to construct aging models. Then the mice were intraperitoneally injected with adriamycin (4 intraperitoneal injections, total 10 mg/kg, Sangon A603456) to construct DCM models. After the models were constructed, cardiomyocytes were isolated from mice in each of the KI group and the WT group. The experimental scheme was approved by the Animal Management and Ethics Committee of Fudan University.
After the ultrasonic test, there were 3 groups for study: WT group, KI group, and KI+Wnt-C59 group. Adriamycin was used for molding, and at the same time, the KI+Wnt-C59 group was intragastrically administered with Wnt-C59 (1 mg/kg.d, MCE HY-15659) every day, and the WT and KI groups were intragastrically administered with an equal volume of sterile normal saline as a control. […] The body weight was measured and recorded for mice in each group every day.
The echocardiogram was measured 2 weeks after the administration, with a probe frequency of 30 MHz. Specifically, the mice were anesthetized with isoflurane, and an M-mode image was recorded when a heart rate of the mice was maintained at 450 to 500 beats/min. […]

[2] = system: SCN5A heterozygous mutant mice (KI) with galactose aging and adriamycin-induced DCM; assay: Heart size comparison after 2 weeks of drug intervention; format: in vivo; settings: KI+Wnt-C59 group vs KI group; intragastric 1 mg/kg.d for 2 weeks
Experimental: as §1
After the ultrasonic test, there were 3 groups for study: WT group, KI group, and KI+Wnt-C59 group. Adriamycin was used for molding, and at the same time, the KI+Wnt-C59 group was intragastrically administered with Wnt-C59 (1 mg/kg.d, MCE HY-15659) every day, and the WT and KI groups were intragastrically administered with an equal volume of sterile normal saline as a control. Mice in each group received normal diet and water, and the administration was conducted continuously for 2 weeks. The body weight was measured and recorded for mice in each group every day.
After 2 weeks of drug intervention, the mice were sacrificed and hearts thereof were collected for heart size comparison among the 3 groups.

46 types of tumor cells = settings: cited from earlier work

## Cc1cc(-c2ccc(CC(=O)Nc3ccc(-c4cccnc4)cc3)cc2)ccn1 [Wnt-C59]
[1]
  cardiac function (left ventricular ejection fraction, LVEF): significantly improved
[2]
  heart size: significantly smaller
46 types of tumor cells
  proliferation of tumor cells: significantly inhibit
